# System: 556581-035-R-J1-PDC complex spheroid growth
# Experiment: Anticancer human tumor 556581-035-R-J1-PDC patient-derived ovarian carcinoma cell line growth inhibition [Asc]
# Details: for IC50: curve of first compound; for viability, T/C: stronger effect = lower value
# Experimental: Multicellular complex tumor spheroid response to apoptosis pathway targeting inhibitors Alrizomadlin, Pelcitoclax, and Dasminapant in combination with a variety of drugs and investigational agents in selected tumor cell lines
# The MDM2 inhibitor alrizomadlin, the Bcl-2/Bcl-xL inhibitor pelcitoclax, and the IAPs inhibitor dasminapant were evaluated both individually and in combination with standard of care and investigational anticancer small molecules within a complex spheroid model of solid tumors. . Complex spheroids include a stromal component modeled by human endothelial cells (HUVEC) and fibroblasts modeled by human mesenchymal stem cells (MSCs). The concentration ranges selected for each drug and investigational agent were based upon clinically achievable concentrations if the clinical Cmax of the agent was known.
# Compounds. The drugs and investigational agents: alrizomadlin (APG-115; NSC831270), pelcitoclax (APG-1252; NSC835773), dasminapant (APG-1387;NSC834197), TAK-243 (NSC785004), copanlisib (NSC809693), olaparib (NSC753686), talazoparib (NSC767125), cobimetinib (NSC 768068), eltanexor (KPT-8602, NSC 794443), abemaciclib (NSC 768073), sotorasib (NSC818433), adagrasib (NSC 831453), MRTX-1133 (NSC 836407), Iadademestat (ORY1001, NSC 806812), and RMC-4630 (NSC839698), were obtained from the NCI Developmental Therapeutics Program Chemical Repository. The FDA-approved anticancer drug set is available from the Developmental Therapeutics Program at https://dtp.cancer.gov/organization/dscb/obtaining/available plates.htm. […] The stock solutions were prepared in dimethyl sulfoxide (DMSO, Sigma-Aldrich, St. Louis, MO, cat. D2650) at 800-fold the tested concentration and stored at -70 degrees C prior to their use. All drugs and investigational agents were tested over a range starting from a high concentration at or near the clinical Cmax and decreasing in half-log increments. If the clinical Cmax for an agent had not been determined, the highest concentration tested was 10 microM.
# The patient-derived cancer (PDC) cell lines include five colon adenocarcinomas: 186277-243-T-J2-PDC, 616215-338-R-J1-PDC, 439559-082-T-J2-PDC, 463943-066-T-J2-PDC, and 519858-162-T-J1-PDC; three pancreatic carcinomas: 323965-272-R-J2-PDC, 521955-158-R6-J3-PDC, and 521955-158-R2-J5-PDC; two uterine sarcomas: 327498-152-R-J2-PDC and 993429-296-R-J1-PDC; two rhabdomyosarcomas: 755483-174-R-J1-PDC and 772245-204-R-J1-PDC; two soft tissue sarcomas: 126254-015-R-J1-PDC and 494315-158-R-J1-PDC; two malignant fibrous histiocytomas: 317291-083-R-J1-PDC and 596521-263-R-J1-PDC; two breast carcinomas: 171881-019-R-J1-PDC and 885512-296-R-J2-PDC; and one ovarian carcinoma: 6556581-035-R-J-PDC were obtained from the NCI PDMR, (https://pdmr.cancer.gov). The established cell lines HSSY-2 synovial sarcoma (RRID:CVCL 8719), SYO-1 synovial sarcoma (RRID:CVCL_7146), MPNST malignant peripheral neural sheath tumor were obtained from the Sloan Kettering Institute. The following established cell lines were purchased from the American Type Culture Collection (ATCC, Manassas, VA), Sor the received from the NCI repository:, PANC-1 pancreatic carcinoma (CRL-1469, RRID:CVCL_0480), OVCAR-5 ovarian carcinoma (RRID:CVCL_1628), OVCAR-8 ovarian carcinoma (RRID:CVCL_1629), , MCF-7 breast carcinoma (CRL-12584, RRID:CVCL_0031), MDA-MB-231 breast carcinoma (CRL-12532, RRID:CVCL_0062), NCI-H1876 small cell lung carcinoma (CRL-5902, RRID:CVCL_1503), NCI-H510A small cell lung carcinoma (HTB-184, RRID:CVCL_1565), NCI-H1417 (CRL-5869, RRID:CVCL_1469), and NCI-H196 small cell lung carcinoma (CRL-5823, RRID:CVCL_1509). Dr. Peter Houghton (Greehey Children's Cancer Research Institute, University of Texas Health Science Center, San Antonio, TX) provided Rh-18 rhabdomyosarcoma (RRID:CVCL_1659). Pooled donor human umbilical vein endothelial cells (HUVEC, Lonza, cat. CC-2519) and human mesenchymal stem cells (hMSC, Lonza, cat. PT-2501) were purchased from Lonza (Walkersville, MD).
# Cell Culture. […]
# 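Further: spheroids exposed to agents for 7 days before viability read.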
smiles,measurement,setting,value
C#Cc1c(F)ccc2cc(O)cc(-c3ncc4c(N5CC6CCC(C5)N6)nc(OCC56CCCN5CC(F)C6)nc4c3F)c12 (configuration not stated) + CNC(C)C(=O)NC1CN(S(=O)(=O)c2cccc(S(=O)(=O)N3CCC4CCC(C(=O)NC(c5ccccc5)c5ccccc5)N4C(=O)C(NC(=O)C(C)NC)C3)c2)CCC2CCC(C(=O)NC(c3ccccc3)c3ccccc3)N2C1=O,IC50,second compound 0.00316 µM,> 10 µM
same,IC50,second compound 0.01 µM,> 10 µM
same,IC50,second compound 0.0316 µM,> 10 µM
same,IC50,second compound 0.1 µM,> 10 µM
same,IC50,second compound 0.316 µM,6.87 µM
same,IC50,second compound 1 µM,5.29 µM
same,"viability, T/C","second compound 0.00316 µM, first compound 0.0316 µM",101%
same,"viability, T/C","second compound 0.00316 µM, first compound 0.1 µM",103%
same,"viability, T/C","second compound 0.00316 µM, first compound 0.316 µM",103%
same,"viability, T/C","second compound 0.00316 µM, first compound 1 µM",99.6%
same,"viability, T/C","second compound 0.00316 µM, first compound 3.16 µM",98%
same,"viability, T/C","second compound 0.00316 µM, first compound 10 µM",86.8%
same,"viability, T/C","second compound 0.01 µM, first compound 0.0316 µM",105%
same,"viability, T/C","second compound 0.01 µM, first compound 0.1 µM",96.6%
same,"viability, T/C","second compound 0.01 µM, first compound 0.316 µM",100%
same,"viability, T/C","second compound 0.01 µM, first compound 1 µM",107%
same,"viability, T/C","second compound 0.01 µM, first compound 3.16 µM",87.6%
same,"viability, T/C","second compound 0.01 µM, first compound 10 µM",71%
same,"viability, T/C","second compound 0.0316 µM, first compound 0.0316 µM",96.7%
same,"viability, T/C","second compound 0.0316 µM, first compound 0.1 µM",95.9%
same,"viability, T/C","second compound 0.0316 µM, first compound 0.316 µM",88.5%
same,"viability, T/C","second compound 0.0316 µM, first compound 1 µM",87.7%
same,"viability, T/C","second compound 0.0316 µM, first compound 3.16 µM",87%
same,"viability, T/C","second compound 0.0316 µM, first compound 10 µM",60.5%
same,"viability, T/C","second compound 0.1 µM, first compound 0.0316 µM",92%
same,"viability, T/C","second compound 0.1 µM, first compound 0.1 µM",88.8%
same,"viability, T/C","second compound 0.1 µM, first compound 0.316 µM",76.8%
same,"viability, T/C","second compound 0.1 µM, first compound 1 µM",78%
same,"viability, T/C","second compound 0.1 µM, first compound 3.16 µM",77.9%
same,"viability, T/C","second compound 0.1 µM, first compound 10 µM",62%
same,"viability, T/C","second compound 0.316 µM, first compound 0.0316 µM",82.6%
same,"viability, T/C","second compound 0.316 µM, first compound 0.1 µM",65.4%
same,"viability, T/C","second compound 0.316 µM, first compound 0.316 µM",75.3%
same,"viability, T/C","second compound 0.316 µM, first compound 1 µM",66.4%
same,"viability, T/C","second compound 0.316 µM, first compound 3.16 µM",62.8%
same,"viability, T/C","second compound 0.316 µM, first compound 10 µM",44%
same,"viability, T/C","second compound 1 µM, first compound 0.0316 µM",65.2%
same,"viability, T/C","second compound 1 µM, first compound 0.1 µM",64.3%
same,"viability, T/C","second compound 1 µM, first compound 0.316 µM",65.6%
same,"viability, T/C","second compound 1 µM, first compound 1 µM",75.4%
same,"viability, T/C","second compound 1 µM, first compound 3.16 µM",57.9%
same,"viability, T/C","second compound 1 µM, first compound 10 µM",36.3%
C=C(F)C(=O)N1CCN(c2nc(OCC3CCCN3C)nc3c2CCN(c2cccc4cccc(Cl)c24)C3)CC1CC#N (configuration not stated) + CCN1C(C(=O)NC23CCC(C(=O)O)(CC2)CC3)C(c2cccc(Cl)c2F)C2(C(=O)Nc3cc(Cl)ccc32)C12CCCCC2,IC50,second compound 0.03 µM,3.8 µM
same,IC50,second compound 0.0949 µM,3.86 µM
same,IC50,second compound 0.3 µM,3.88 µM
same,IC50,second compound 0.949 µM,4.39 µM
same,IC50,second compound 3 µM,2.67 µM
same,"viability, T/C","second compound 0.03 µM, first compound 0.0316 µM",92.1%
same,"viability, T/C","second compound 0.03 µM, first compound 0.1 µM",97.3%
same,"viability, T/C","second compound 0.03 µM, first compound 0.316 µM",112%
same,"viability, T/C","second compound 0.03 µM, first compound 1 µM",94.5%
same,"viability, T/C","second compound 0.03 µM, first compound 3.16 µM",59%
same,"viability, T/C","second compound 0.03 µM, first compound 10 µM",3.04%
same,"viability, T/C","second compound 0.0949 µM, first compound 0.0316 µM",114%
same,"viability, T/C","second compound 0.0949 µM, first compound 0.1 µM",102%
same,"viability, T/C","second compound 0.0949 µM, first compound 0.316 µM",90.8%
same,"viability, T/C","second compound 0.0949 µM, first compound 1 µM",87.8%
same,"viability, T/C","second compound 0.0949 µM, first compound 3.16 µM",62.5%
same,"viability, T/C","second compound 0.0949 µM, first compound 10 µM",3.7%
same,"viability, T/C","second compound 0.3 µM, first compound 0.0316 µM",103%
same,"viability, T/C","second compound 0.3 µM, first compound 0.1 µM",92.5%
same,"viability, T/C","second compound 0.3 µM, first compound 0.316 µM",103%
same,"viability, T/C","second compound 0.3 µM, first compound 1 µM",81.6%
same,"viability, T/C","second compound 0.3 µM, first compound 3.16 µM",61.4%
same,"viability, T/C","second compound 0.3 µM, first compound 10 µM",3.01%
same,"viability, T/C","second compound 0.949 µM, first compound 0.0316 µM",91.7%
same,"viability, T/C","second compound 0.949 µM, first compound 0.1 µM",99.2%
same,"viability, T/C","second compound 0.949 µM, first compound 0.316 µM",98.3%
same,"viability, T/C","second compound 0.949 µM, first compound 1 µM",84.9%
same,"viability, T/C","second compound 0.949 µM, first compound 3.16 µM",65.6%
same,"viability, T/C","second compound 0.949 µM, first compound 10 µM",12.3%
same,"viability, T/C","second compound 3 µM, first compound 0.0316 µM",89.8%
same,"viability, T/C","second compound 3 µM, first compound 0.1 µM",105%
same,"viability, T/C","second compound 3 µM, first compound 0.316 µM",92.5%
same,"viability, T/C","second compound 3 µM, first compound 1 µM",79.2%
same,"viability, T/C","second compound 3 µM, first compound 3.16 µM",45.2%
same,"viability, T/C","second compound 3 µM, first compound 10 µM",2.9%

# Source: PubChem BioAssay AID1963450 (Molecular Pharmacology Branch, DTP, NCI, 2024)
